Assay results: US20090131331A1 (DSM IP ASSETS B.V., priority 2005, published 2009)

Legend:
ACE [1] = target: ACE (Homo sapiens, UniProt P12821); details: literature (Nakamura 1995; Aryoshi 1993); read-out: IC50 reported earlier as ACE inhibiting peptides; cited from earlier work
[2] = tested on: ACE (enzyme obtained from Sigma); assay: ACE in phosphate buffered saline (PBS) pH 7.4 with a chloride concentration of 260 mM; details: 50° C., up to 60 minutes
[3] = tested on: pepsin (Fluka order no. 77161); 8 times USP pancreatin (Sigma order no. P7545); assay: simulated human gastro-intestinal tract (GIT procedure): pepsin with falling pH, then pancreatin up to pH 7.1; details: 37.5° C., up to t=125 min
ACE [4] = assay: at-line ACE inhibition assay; type: biochemical
Protocol: For the at-line ACE inhibition assay 27 μl of a 33.4 mU ml^−1 ACE (enzyme obtained from Sigma) in phosphate buffered saline (PBS) pH 7.4 with a chloride concentration of 260 mM was added and the mixture was allowed to incubate for 5 minutes on a 96 well plate mixer at 700 RPM. After the incubation period 13 μl of a 0.35 mM hippuric acid-histidine leucine (HHL) solution in PBS buffer was added and mixed for 1 minute at 700 RPM. The mixture was allowed to react for 60 minutes at 50° C. in a GC-oven. After the reaction the plate was cooled in melting ice.
The 96 well plate was then analysed on a flash-HPLC-column. Of the reaction mixture of each well 30 μl was injected on a Chromlith Flash RP18e 25×4.6 mm HPLC column (Merck, Darmstadt, Germany) equipped with a 10×4.6 mm RP18e guard column from the same supplier. The isocratic mobile phase consisted of a 0.1% solution of TFA in water/acetonitrile 79/21. […] Hippuric acid (H) and HHL were monitored at 280 nm. The peak heights of H and HHL were measured and the ACE inhibition (ACEI) of each fraction was calculated according to the equation: […]
• DCw Degree of Cleavage by ACE of HHL to H and HL in water • DCa Degree of Cleavage of HHL to H and HL for the analyte The Degree of Cleavage was calculated by expressing the peak height of H as a fraction of the sum of the peak heights of H and HHL.

ACE [5] = assay: modified Matsui ACE inhibition assay; type: biochemical; details: as stated in description text; read-out: IC50 value in the Modified Matsui test
Protocol: To determine the ACE inhibition activity of MAP and ITP, the chemically synthesised tripeptides were assayed according to the method of Matsui et al. (Matsui, T. et al. (1992) Biosci. Biotech. Biochem. 56: 517-518) with some minor modifications.
Each one of the four samples contained 75 μl 3 mM hippuryl histidine leucine (Hip-His-Leu, Sigma) dissolved in a 250 mM borate solution containing 200 mM NaCl, pH 8.3. ACE was obtained from Sigma. The mixtures were incubated at 37° C. and stopped after 30 min by adding 125 μl 0.5 M HCl. […] After incubation for 20 min. at 37° C., 4 ml 4 mM Na2SO3 in 0.2 M NaH2PO4 was added and the light absorbance at 416 nm was measured with UV/Vis spectrophotometer (Shimadzu UV-1601 with a CPS controller, Netherlands).
The amount of ACE inhibition (ACEI) activity was calculated as a percentage of inhibition compared with the conversion rate of ACE in the absence of an inhibitor according to the following formula: […]
Control 1=Absorbance without ACE inhibitory component (=max. ACE activity) [AU]. Control 2=Absorbance without ACE inhibitory component and without ACE (background) [AU]. Sample1=Absorbance in the presence of ACE and the ACE inhibitory component [AU]. Sample 2=Absorbance in the presence of the ACE inhibitory component, but without ACE [AU]. […]

ACE (Homo sapiens, UniProt P12821), sequence (P12821 30-1306, species assumed): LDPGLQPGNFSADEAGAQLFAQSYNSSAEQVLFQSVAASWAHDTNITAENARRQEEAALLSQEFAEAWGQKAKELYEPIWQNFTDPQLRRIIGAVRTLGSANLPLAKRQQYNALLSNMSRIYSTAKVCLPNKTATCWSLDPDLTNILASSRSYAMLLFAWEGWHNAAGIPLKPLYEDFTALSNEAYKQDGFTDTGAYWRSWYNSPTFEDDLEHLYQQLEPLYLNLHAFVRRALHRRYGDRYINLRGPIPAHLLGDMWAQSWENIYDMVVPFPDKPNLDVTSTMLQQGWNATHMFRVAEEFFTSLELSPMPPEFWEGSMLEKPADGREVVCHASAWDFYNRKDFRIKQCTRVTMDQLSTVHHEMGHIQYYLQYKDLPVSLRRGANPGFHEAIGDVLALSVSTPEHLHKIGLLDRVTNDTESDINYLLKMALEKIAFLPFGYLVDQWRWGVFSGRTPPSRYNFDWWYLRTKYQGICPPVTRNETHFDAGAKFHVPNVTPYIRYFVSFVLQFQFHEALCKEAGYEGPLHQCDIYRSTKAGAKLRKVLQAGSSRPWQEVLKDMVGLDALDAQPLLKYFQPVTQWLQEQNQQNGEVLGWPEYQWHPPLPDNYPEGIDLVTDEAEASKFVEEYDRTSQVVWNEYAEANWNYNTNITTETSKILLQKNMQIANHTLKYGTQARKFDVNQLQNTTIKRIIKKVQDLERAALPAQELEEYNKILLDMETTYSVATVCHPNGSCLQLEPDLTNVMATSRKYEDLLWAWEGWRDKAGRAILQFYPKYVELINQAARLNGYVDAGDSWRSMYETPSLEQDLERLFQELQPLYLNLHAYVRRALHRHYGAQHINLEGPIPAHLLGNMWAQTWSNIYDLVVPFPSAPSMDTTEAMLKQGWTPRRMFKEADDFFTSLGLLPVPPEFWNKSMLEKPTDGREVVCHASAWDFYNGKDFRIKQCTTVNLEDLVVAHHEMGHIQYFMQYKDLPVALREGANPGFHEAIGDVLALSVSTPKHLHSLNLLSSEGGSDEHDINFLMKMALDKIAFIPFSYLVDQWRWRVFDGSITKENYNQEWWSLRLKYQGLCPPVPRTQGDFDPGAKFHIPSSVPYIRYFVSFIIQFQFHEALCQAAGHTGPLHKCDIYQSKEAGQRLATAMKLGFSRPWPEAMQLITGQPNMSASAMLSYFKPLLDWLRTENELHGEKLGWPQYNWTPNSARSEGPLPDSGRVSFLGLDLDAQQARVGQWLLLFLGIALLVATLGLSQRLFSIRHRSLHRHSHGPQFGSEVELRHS

LPP: known ACE inhibiting tripeptide, β-casein f151-153 (UniProt P02666 166-168, looked up, fragment)
IC50 (ACE [1]): 9.6 µM

Hip-His-Leu
cleaved bond [2]: Hip-His

Met-Ala-Pro
amount per gram powder before and after GIT [3]: 2851.4 μg g^−1 powder before, 3095.8 after GIT

IPP: known ACE inhibiting tripeptide, kappa-casein f 108-110; chemically synthesized internal reference
IC50 (ACE [4]): 7.1 µM
IC50 (ACE [5]): 2 µM
IC50 (ACE [1]): 5 µM
